Experimental data taken from the NIST ThermoML archive (doi:10.1021/je901030f).
Numbers after ± are expanded uncertainties.

Conditions: 101.33 kPa, Crystal, Buoyancy - hydrostatic balance with magnetic suspension - one sinker

[Cl-].[Cs+] [cesium chloride]
Conditions | mass density [kg/m3]
843 K | 3074.5 ± 16
853 K | 3067.6 ± 16
863 K | 3060.2 ± 16
873 K | 3052.4 ± 16
883 K | 3046 ± 16
893 K | 3040.9 ± 15
903 K | 3039.5 ± 15
913 K | 3041.8 ± 16

[Cl-].[K+] [potassium chloride]
Conditions | mass density [kg/m3]
973 K | 1805.8 ± 9.2
983 K | 1803.6 ± 9.2
993 K | 1800.6 ± 9.2
1003 K | 1797.1 ± 9.1
1013 K | 1794.5 ± 9.1
1023 K | 1793.6 ± 9.1
1033 K | 1793.6 ± 9.1
1043 K | 1796.6 ± 9.1

[Cl-].[Rb+] [rubidium chloride]
Conditions | mass density [kg/m3]
903 K | 2578.4 ± 13
913 K | 2573.5 ± 13
923 K | 2567.8 ± 13
933 K | 2562.2 ± 13
943 K | 2556.1 ± 13
953 K | 2551.7 ± 13
963 K | 2548.6 ± 13
973 K | 2547.6 ± 13
983 K | 2550.3 ± 13
993 K | 2556.4 ± 13

[Cl-].[Na+] [sodium chloride]
Conditions | mass density [kg/m3]
1013 K | 1931.2 ± 9.8
1023 K | 1905.8 ± 9.7
1033 K | 1890.4 ± 9.6
1043 K | 1888.3 ± 9.6
1053 K | 1882 ± 9.6
1063 K | 1884.9 ± 9.6
1073 K | 1889.8 ± 9.6
